For data set [1], the target named is T1, beta 2 adrenergic receptor peptide B2AR 183–185 NCY (Homo sapiens, UniProt P07550).
T1 construct: B2AR 183–185 NCY; purchased RS Synthesis (Louisville, KY, USA); host or cells: chemical synthesis
The experiment in a line: biochemical. The class given is binding. Particulars: for binding to adrenergic receptor peptide 183–185 (NCY), in words: Figure 4; for Kd: UV spectrophotometry, read-out: Kd (µM) B2AR 183–185 NCY.

Data set [2] has as its target T2, histamine 1 receptor peptide H1HR 77–87 GAVVMPMNILYL (Homo sapiens, UniProt P35367).
T2 construct: H1HR 77–87 GAVVMPMNILYL; purchased RS Synthesis (Louisville, KY, USA); host or cells: chemical synthesis
The data set can be described thus: biochemical. The class given is binding. Particulars: UV spectrophotometry; single value, or first (higher-affinity) value of a cell a/b; read-out: Kd (µM) H1HR 77–87 […].

Data set [3] has as its target Histamine Receptor (histamine 1 receptor peptides) (Homo sapiens, UniProt P35367). The data set can be described thus: biochemical. The class given is binding. Particulars: first symbol of the cell.
The target of data set [4] is Adrenergic Receptor (beta 2 adrenergic receptor peptides) (Homo sapiens, UniProt P07550). The data set can be described thus: Overall pattern of binding: Adrenergic Receptor peptides. The method, then:
(§1) The method used was ultraviolet spectrophotometry, which is a sensitive way to test for the binding of pairs of molecules. Binding data obtained using this method have previously been validated by direct comparison to results of nuclear magnetic resonance, circular dichroism, capillary electrophoresis, and other physicochemical methods (e.g., [51, 87, 88, 89, 90]).
(§2) For each individual test, the concentration of the stock solution was calculated and then diluted to a 10 µM solution.
(§3) Thus, the final concentration of receptor peptide in each well varied from 0.5 mM to 0.05 pM while the other compound was held fixed at 5 µM.
(§4) The method of calculating binding constants was to measure the absorbance (minus the absorbance of the buffer) of 100 µL of each compound by itself diluted by 100 µL of buffer at a given wavelength (in this case at 200 nm) at the range of concentrations utilized in the experiments. The average of the resulting values is calculated. (If the experiments are run properly, there is very little variance—a couple of percent. If there was more variance than that, the experiment was re-run.) An “expected” value is calculated following Beer’s law, by adding the absorbances of each pair of compounds (peptide plus small molecule). […]
(§5) The difference between the “expected” and actual values was determined at each concentration of the varied compound. […]

Data set [5] concerns the target Dopamine Receptor (dopamine 1 receptor peptides) (Homo sapiens, UniProt P21728). The experiment in a line: Overall pattern of binding: Dopamine Receptor peptides. The method, then:
as §1, §2, §3, §4, §5

Data set [6] addresses reduced glutathione (Glut RED, ECG). The experiment in a line: UV spectrophotometry binding to reduced glutathione. Particulars: UV spectrophotometry at 200 nm, pH 7.00 phosphate-buffered saline, ca. 24 °C.
Data set [7] has as its system receptor peptides tested. The data set can be described thus: UV spectrophotometry binding to all peptides tested (summary).
Data set [8] deals with T3, histamine 1 receptor peptide HIHR 177–183 RDKCETD (Homo sapiens, UniProt P35367, E177R).
T3 construct: HIHR 177–183 RDKCETD; purchased RS Synthesis (Louisville, KY, USA); host or cells: chemical synthesis
The experiment in a line: biochemical. The class given is binding. Particulars: UV spectrophotometry; read-out: Kd (µM) HIHR 177–183 RDKCETD.

Data set [9] addresses T4, histamine 1 receptor peptide H1HR 105–108 SMDY (Homo sapiens, UniProt P35367).
T4 construct: H1HR 105–108 SMDY; purchased RS Synthesis (Louisville, KY, USA); host or cells: chemical synthesis
The data set can be described thus: biochemical. Particulars: UV spectrophotometry; single value, or first (higher-affinity) value of a cell a/b; read-out: Kd (µM) H1HR 105–108 SMDY. The data set is classed as binding.

The target in data set [10] is oxidized glutathione (Glut OX, ECG-ECG). The data set can be described thus: UV spectrophotometry binding to oxidized glutathione. Particulars: UV spectrophotometry; single value, or first (higher-affinity) value of a cell a/b; read-out: Kd (µM) Glut OX ECG-ECG.
The target in data set [11] is Opioid Receptor (mu opioid receptor peptides) (Homo sapiens, UniProt P35372). The experiment in a line: Overall pattern of binding: Opioid Receptor peptides. How it is done: as §1, §2, §3
The method of calculating binding constants was to measure the absorbance (minus the absorbance of the buffer) of 100 µL of each compound by itself diluted by 100 µL of buffer at a given wavelength (in this case at 200 nm) at the range of concentrations utilized in the experiments. The average of the resulting values is calculated. (If the experiments are run properly, there is very little variance—a couple of percent. If there was more variance than that, the experiment was re-run.) An “expected” value is calculated following Beer’s law, by adding the absorbances of each pair of compounds (peptide plus small molecule). The actual chemical combinations of these molecules was then run under identical conditions.
The difference between the “expected” and actual values was determined at each concentration of the varied compound. This difference was then plotted against the concentration of the varied compound. […] The binding constant was approximated by using the inflection point of the binding curve (i.e., the point at which the dissociation and association of the two molecules was equal). […] All data were analyzed using Microsoft Excel.
Because the resulting absorbances are the differences between the independently measured absorbances, it is not possible to calculate error bars or to perform statistics on the resulting values.

Data set [12] has as its system Glutathione. The data set can be described thus: Overall pattern of binding: Glutathione (reduced and oxidized).
Data set [13] deals with dopamine 1 receptor peptide D1DR 96–98 FCN (Homo sapiens, UniProt P21728). The experiment in a line: biochemical.
For data set [14] the following is noted: intrathecal delivery; cited from earlier work.
The target of data set [15] is T5, beta 2 adrenergic receptor peptide B2AR 97–103 KMWTFGN (Homo sapiens, UniProt P07550).
T5 construct: B2AR 97–103 KMWTFGN; purchased RS Synthesis (Louisville, KY, USA); host or cells: chemical synthesis
The experiment in a line: biochemical. The data set is classed as binding.

The target in data set [16] is T6, mu opioid receptor peptide Mu OPR 38–51 (Homo sapiens, UniProt P35372).
T6 construct: Mu OPR 38–51; purchased RS Synthesis (Louisville, KY, USA); host or cells: chemical synthesis
The experiment in a line: biochemical. The data set is classed as binding. Particulars: UV spectrophotometry; single value, or first (higher-affinity) value of a cell a/b; read-out: Kd (µM) Mu OPR 38–51.

In data set [17] the target is T7, beta 2 adrenergic receptor peptide B2AR 105–108 WCEF (Homo sapiens, UniProt P07550).
T7 construct: B2AR 105–108 WCEF; purchased RS Synthesis (Louisville, KY, USA); host or cells: chemical synthesis
The experiment in a line: biochemical. The data set is classed as binding.

Data set [18] has as its target T8, insulin receptor peptide INSR 392–404 (Homo sapiens, UniProt P06213).
T8 construct: purchased RS Synthesis (Louisville, KY, USA); host or cells: chemical synthesis
The data set can be described thus: biochemical. The data set is classed as binding. Particulars: UV spectrophotometry.

The target in data set [19] is T9, mu opioid receptor peptide Mu OPR 132–143 (Homo sapiens, UniProt P35372).
T9 construct: Mu OPR 132–143; purchased RS Synthesis (Louisville, KY, USA); host or cells: chemical synthesis
The experiment in a line: biochemical. The class given is binding. Particulars: UV spectrophotometry; single value, or first (higher-affinity) value of a cell a/b.

Data set [20] has as its target T10, mu opioid receptor peptide Mu OPR 121–131 (Homo sapiens, UniProt P35372).
T10 construct: Mu OPR 121–131; purchased RS Synthesis (Louisville, KY, USA); host or cells: chemical synthesis
The data set can be described thus: biochemical. The class given is binding. Particulars: UV spectrophotometry; single value, or first (higher-affinity) value of a cell a/b.

For data set [21], the target named is T11, mu opioid receptor peptide Mu OPR 111–122 (Homo sapiens, UniProt P35372).
T11 construct: Mu OPR 111–122; purchased RS Synthesis (Louisville, KY, USA); host or cells: chemical synthesis
The experiment in a line: biochemical. The class given is binding. Particulars: UV spectrophotometry; single value, or first (higher-affinity) value of a cell a/b.

In data set [22] the target is T12, insulin receptor peptide INSR 157–166 (Homo sapiens, UniProt P06213).
T12 construct: INSR 157–166; purchased RS Synthesis (Louisville, KY, USA); host or cells: chemical synthesis
The data set can be described thus: biochemical. The class given is binding. Particulars: UV spectrophotometry; read-out: Kd (µM) INSR 157–166.

In data set [23] the target is T13, mu opioid receptor peptide Mu OPR 211–226 (Homo sapiens, UniProt P35372).
T13 construct: Mu OPR 211–226; purchased RS Synthesis (Louisville, KY, USA); host or cells: chemical synthesis
The experiment in a line: biochemical. The data set is classed as binding. Particulars: UV spectrophotometry; single value, or first (higher-affinity) value of a cell a/b.

For data set [24], the system named is glutathione S-transferase A-5 and CYP3A2 expression in rat liver. The arrangement: method as in PMID 20487198. Particulars: exposure to opioid; cited from earlier work.
[25] abbreviates: UV spectrophotometry, read-out: Kd (µM) B2AR 97–103 KMWTFGN.
[26] abbreviates: UV spectrophotometry, read-out: Kd (µM) B2AR 105–108 WCEF.

Where a name gives a salt, the structure may show the parent alone. Read-outs that look alike come from different tables or passages of the source.

Opioid Receptor (mu opioid receptor peptides), sequence (P35372 with tags, fused parts or gaps): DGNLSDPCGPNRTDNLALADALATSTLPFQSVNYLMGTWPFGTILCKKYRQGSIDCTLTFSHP
Dopamine Receptor (dopamine 1 receptor peptides), sequence (P21728 with tags, fused parts or gaps): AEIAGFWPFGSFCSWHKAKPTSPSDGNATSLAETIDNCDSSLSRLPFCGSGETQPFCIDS
Histamine Receptor (histamine 1 receptor peptides), sequence (P35367 with tags, fused parts or gaps): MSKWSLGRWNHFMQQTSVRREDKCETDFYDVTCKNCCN
Adrenergic Receptor (beta 2 adrenergic receptor peptides), sequence (P07550 with tags, fused parts or gaps): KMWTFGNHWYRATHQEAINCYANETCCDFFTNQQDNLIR

With `CC(=O)OCC[N+](C)(C)C` [Acetylcholine, acetylcholine], the “binding to adrenergic receptor peptide 183–185 (NCY), in words” value (“binding … (NCY), in words” for short) in data set [1] was “No binding was observed”. Moreover, the equilibrium dissociation constant (Kd) in [2] is more than 1000 µM; in data set [3], more than 60 µM; in data set [4] (first symbol of the cell), more than 60 µM; in data set [5] (first symbol of the cell), more than 60 µM; in [6] it was more than 1000 µM; in [8], more than 1000 µM. Moreover, the Kd in data set [9] was more than 1000 µM; in data set [10] it was more than 1000 µM; in [11] (first symbol of the cell), more than 60 µM. The “observable affinity of the peptides tested, in words” value in data set [7] is “none of the peptides tested had observable affinity”.
Turning to `OC[C@H]1OC(O)[C@H](O)[C@@H](O)[C@@H]1O` (stereo partly shown) [Glucose, glucose], the “binding … (NCY), in words” value in data set [1] was “No binding was observed”. In addition, the “binding to either reduced or oxidized glutathione, in words” value in [12] is recorded as “do not bind appreciably”. The Kd is more than 60 µM in data set [3]; more than 60 µM in data set [4]; more than 60 µM in data set [5]; more than 1000 µM in [6]; more than 1000 µM in [8]; more than 1000 µM in [10]. Further, the Kd in data set [11] was more than 60 µM. Further, in [7], the “observable affinity of the peptides tested, in words” value is on record as “none of the peptides tested had observable affinity”.
Take `CN1CC[C@]23c4c5ccc(O)c4O[C@H]2[C@@H](O)C=C[C@H]3[C@H]1C5` [Morphine, morphine sulfate]: the Kd in [13] is 25 µM. For the same molecule, in data set [14], the “transient cerebrospinal fluid concentrations” value is reported as “approximately 25 µM”.
In the case of `N[C@@H](Cc1ccccc1)C(=O)O` [Phenylalanine, phenylalanine], the “binding … (NCY), in words” value in [1] was “Significant binding”. The Kd in [1] is 30 µM; in data set [2] it was more than 1000 µM; in data set [13], 25 µM; in data set [15] (setting [25]), more than 1000 µM; in data set [16] it was 50 µM; in [17] (setting [26]) it was 55 µM. Besides, the Kd in [6] is more than 1000 µM; in data set [18] it was more than 1000 µM; in [19], 80 µM; in data set [8] it was 50 µM; in data set [9] it was 60 µM; in data set [20], more than 1000 µM. The Kd in data set [21] was more than 1000 µM; in [10], 90 µM; in data set [22] it was 90 µM; in [23], 200 µM.
For `NCCc1c[nH]c2ccc(O)cc12` [Serotonin, serotonin], the Kd in data set [2] is 50 µM; in data set [15], 430 µM; in data set [17], 45 µM; in data set [6] it was 70 µM; in data set [8], 60 µM; in [9] it was 120 µM. For the same molecule, the values for the Kd in data set [10] and in [11] (first symbol of the cell) were more than 1000 µM and more than 60 µM, respectively.
Turning to `N[C@@H](Cc1ccc(O)cc1)C(=O)O` [Tyrosine, tyrosine], the “binding … (NCY), in words” value in [1] was “Significant binding”. The Kd in [1] is 35 µM; in data set [2], more than 1000 µM; in data set [13], 22 µM; in data set [15] (setting [25]) it was more than 1000 µM; in data set [16], 85 µM; in data set [17] (setting [26]), 50 µM. Besides, the Kd was 130 µM in data set [6]; more than 1000 µM in data set [18]; 60 µM in [19]; 50 µM in data set [8]; 50 µM in [9]; more than 1000 µM in data set [20]. Besides, the Kd in data set [21] worked out at 700 µM; in data set [10], 130 µM; in data set [22], 90 µM; in [23], 160 µM.
For `COc1ccc2c3c1O[C@H]1C(=O)CC[C@@]4(O)[C@@H](C2)N(C)CC[C@]314` [oxycodone], in data set [24], the “expression in rat liver of glutathione S-transferase A-5” value was “greater than six-fold increase” and the “expression of the cytochrome enzyme CYP3A2” value is reported as “decreased seven-fold”.

These data come from PMC7504417 (International Journal of Molecular Sciences, 2020).
